Data from PubChem BioAssay AID248 (DTP/NCI, 2004).
Toxic doses and inconclusive results are not listed. Cut-off read from the data, not from the text of the source: active = T/C of 150% or more; inactive = T/C below 125%.

Tested on: L1210 leukemia ip in BDF1 mice, survival T/C
Experiment: NCI In Vivo Anticancer Drug Screen. Data for tumor model L1210 Leukemia (intraperitoneal) in B6D2F1 (BDF1) mice
Settings: endpoint: mean survival time, higher = longer survival
In short: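 Read-out is survival time, reported as the treated-group measurement over the vehicle-control measurement.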

[1] = dose: 100.0 mg/kg/injection, schedule: Q04DX003 (ip), vehicle: saline with Tween-80
[2] = dose: 200.0 mg/kg/injection, schedule: Q04DX003 (ip), vehicle: saline with Tween-80
[3] = dose: 400.0 mg/kg/injection, schedule: Q04DX003 (ip), vehicle: saline with Tween-80
[4] = dose: 100.0 mg/kg/injection, schedule: Q04DX003 (ip), vehicle: Klucel (hydroxypropylcellulose) (HPC)
[5] = dose: 200.0 mg/kg/injection, schedule: Q04DX003 (ip), vehicle: Klucel (hydroxypropylcellulose) (HPC)
[6] = dose: 400.0 mg/kg/injection, schedule: Q04DX003 (ip), vehicle: Klucel (hydroxypropylcellulose) (HPC)
[7] = dose: 100.0 mg/kg/injection, schedule: Q04DX003 (ip), vehicle: saline
[8] = dose: 200.0 mg/kg/injection, schedule: Q04DX003 (ip), vehicle: saline
[9] = dose: 100.0 mg/kg/injection, schedule: Q04DX002 (ip), vehicle: Klucel (hydroxypropylcellulose) (HPC)
[10] = dose: 200.0 mg/kg/injection, schedule: Q04DX002 (ip), vehicle: Klucel (hydroxypropylcellulose) (HPC)

Measured: T/C

CN(C)c1ccc(N=Nc2ccc3c(c2)C(=O)c2ccccc2C3=O)cc1
inactive: dose: 100.0 mg/kg/injection, schedule: Q01DX009 (ip), vehicle: other 104 % of control | dose: 200.0 mg/kg/injection, schedule: Q01DX009 (ip), vehicle: other 105 % of control | dose: 400.0 mg/kg/injection, schedule: Q01DX009 (ip), vehicle: other 98 % of control

C=CCNC(=O)CS(=O)(=O)c1ccc(C)cc1
inactive: [1] 94 % of control | [2] 100 % of control | [3] 96 % of control

Nc1ncc(CNc2ccc(C(=O)NC(CC(=O)O)C(=O)O)cc2)c(N)n1 (stereo not given)
inactive: dose: 100.0 mg/kg/injection, schedule: Q01DX001 (ip), vehicle: saline with Tween-80 93 % of control | dose: 100.0 mg/kg/injection, schedule: Q01DX009 (ip), vehicle: saline with Tween-80 106 % of control | [1] 93 % of control | dose: 200.0 mg/kg/injection, schedule: Q01DX001 (ip), vehicle: saline with Tween-80 105 % of control | dose: 200.0 mg/kg/injection, schedule: Q01DX009 (ip), vehicle: saline with Tween-80 100 % of control | [2] 97 % of control | dose: 400.0 mg/kg/injection, schedule: Q01DX001 (ip), vehicle: saline with Tween-80 100 % of control | dose: 400.0 mg/kg/injection, schedule: Q01DX009 (ip), vehicle: saline with Tween-80 105 % of control | [3] 98 % of control

Cc1ccc([N+](=O)[O-])cc1NC(=O)Sc1ccc(C(C)(C)C)cc1
inactive: [4] 98 % of control | [5] 98 % of control | [6] 98 % of control

CC(N)CN(C)C (stereo not given)
inactive: dose: 100.0 mg/kg/injection, schedule: Q01DX009 (ip), vehicle: saline 98 % of control | [7] 99 % of control | dose: 200.0 mg/kg/injection, schedule: Q01DX009 (ip), vehicle: saline 106 % of control | [8] 100 % of control | dose: 400.0 mg/kg/injection, schedule: Q04DX003 (ip), vehicle: saline 96 % of control

CC1(C)N=C1c1ccccc1
inactive: dose: 100.0 mg/kg/injection, schedule: Q04DX002 (ip), vehicle: saline 98 % of control | dose: 200.0 mg/kg/injection, schedule: Q04DX002 (ip), vehicle: saline 117 % of control

FC(F)(F)c1cccc(-n2nncc2-c2ccc(Cl)cc2)c1
inactive: [9] 96 % of control | [10] 101 % of control | dose: 400.0 mg/kg/injection, schedule: Q04DX002 (ip), vehicle: Klucel (hydroxypropylcellulose) (HPC) 96 % of control

O=C(Nc1cc(C(F)(F)F)ccc1Cl)SCCSC(=O)Nc1cc(C(F)(F)F)ccc1Cl
inactive: dose: 100.0 mg/kg/injection, schedule: Q01DX009 (ip), vehicle: Klucel (hydroxypropylcellulose) (HPC) 87 % of control | [4] 102 % of control | dose: 200.0 mg/kg/injection, schedule: Q01DX009 (ip), vehicle: Klucel (hydroxypropylcellulose) (HPC) 103 % of control | [5] 100 % of control | dose: 400.0 mg/kg/injection, schedule: Q01DX009 (ip), vehicle: Klucel (hydroxypropylcellulose) (HPC) 93 % of control | [6] 97 % of control

CN(C)CCN(C)C(=O)C1C(c2ccccc2)C1c1ccccc1 (stereo not given)
inactive: dose: 12.5 mg/kg/injection, schedule: Q04DX002 (ip), vehicle: Klucel (hydroxypropylcellulose) (HPC) 100 % of control | dose: 25.0 mg/kg/injection, schedule: Q04DX002 (ip), vehicle: Klucel (hydroxypropylcellulose) (HPC) 100 % of control | dose: 50.0 mg/kg/injection, schedule: Q04DX002 (ip), vehicle: Klucel (hydroxypropylcellulose) (HPC) 87 % of control

Cc1cc(C)c(C(=O)O)c(C)c1Br
inactive: dose: 50.0 mg/kg/injection, schedule: Q01DX001 (ip), vehicle: other 98 % of control | dose: 100.0 mg/kg/injection, schedule: Q01DX001 (ip), vehicle: other 104 % of control | [1] 96 % of control | dose: 200.0 mg/kg/injection, schedule: Q01DX001 (ip), vehicle: other 96 % of control | [2] 94 % of control | dose: 400.0 mg/kg/injection, schedule: Q01DX001 (ip), vehicle: other 111 % of control | [3] 103 % of control

CC(C)NCC(O)c1cccc(O)c1 (stereo not given)
inactive: dose: 50.0 mg/kg/injection, schedule: Q04DX003 (ip), vehicle: saline 101 % of control | dose: 100.0 mg/kg/injection, schedule: Q01DX001 (ip), vehicle: saline 98 % of control | [7] 101 % of control | dose: 200.0 mg/kg/injection, schedule: Q01DX001 (ip), vehicle: saline 97 % of control | [8] 104 % of control

O=[N+]([O-])c1ccc2c(c1)OCCOCCOCCOCCO2
inactive: [9] 95 % of control | dose: 100.0 mg/kg/injection, schedule: Q04DX002 (ip), vehicle: saline with Tween-80 93 % of control | [10] 103 % of control | dose: 200.0 mg/kg/injection, schedule: Q04DX002 (ip), vehicle: saline with Tween-80 104 % of control | dose: 400.0 mg/kg/injection, schedule: Q04DX002 (ip), vehicle: saline with Tween-80 87 % of control

CCCCCCOC(=O)C(N)Cc1ccc(OC)c(N(CCCl)CCCl)c1 (stereo not given)
inactive: dose: 12.5 mg/kg/injection, schedule: Q01DX001 (ip), vehicle: saline 93 % of control | dose: 15.0 mg/kg/injection, schedule: Q01DX001 (ip), vehicle: saline 94 % of control

CC(=O)OCc1c(O)c2c(c(O)c1COC(C)=O)C(=O)C=CC2=O
inactive: dose: 2.0 mg/kg/injection, schedule: Q01DX009 (ip), vehicle: saline 96 % of control | dose: 4.0 mg/kg/injection, schedule: Q01DX009 (ip), vehicle: saline 96 % of control | dose: 8.0 mg/kg/injection, schedule: Q01DX009 (ip), vehicle: saline 88 % of control | dose: 16.0 mg/kg/injection, schedule: Q01DX009 (ip), vehicle: saline 91 % of control
